Data as given in patent US9290485B2, “N-((6-amino-pyridin-3-yl)methyl)-heteroaryl-carboxamides” (NOVARTIS AG, priority 2010, dated 2016).

Molecular target: human plasma kallikrein (Homo sapiens (Human), UniProt P03952)
Settings: human plasma kallikrein 25 pM, substrate 0.5 uM, 1 hour pre-incubation at room temperature, read at t=60 min

human plasma kallikrein, sequence (P03952 whole entry, looked up): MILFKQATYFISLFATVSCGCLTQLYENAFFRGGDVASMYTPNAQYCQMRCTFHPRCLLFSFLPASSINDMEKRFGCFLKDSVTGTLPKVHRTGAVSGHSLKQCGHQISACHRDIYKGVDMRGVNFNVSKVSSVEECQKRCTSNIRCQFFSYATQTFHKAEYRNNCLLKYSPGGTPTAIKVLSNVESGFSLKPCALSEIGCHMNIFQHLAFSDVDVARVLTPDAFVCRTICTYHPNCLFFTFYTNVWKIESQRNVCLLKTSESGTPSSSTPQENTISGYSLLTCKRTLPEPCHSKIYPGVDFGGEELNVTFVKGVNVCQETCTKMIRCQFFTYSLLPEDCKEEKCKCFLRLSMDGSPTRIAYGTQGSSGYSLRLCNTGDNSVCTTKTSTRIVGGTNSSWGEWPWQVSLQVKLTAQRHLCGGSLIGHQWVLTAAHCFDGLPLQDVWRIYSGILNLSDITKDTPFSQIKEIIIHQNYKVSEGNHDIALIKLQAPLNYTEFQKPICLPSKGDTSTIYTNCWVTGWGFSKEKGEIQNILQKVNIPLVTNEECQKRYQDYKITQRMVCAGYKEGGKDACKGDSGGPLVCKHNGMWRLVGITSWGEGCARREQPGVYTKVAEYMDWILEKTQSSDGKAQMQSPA
human plasma kallikrein, sequence (P03952 whole entry partner, looked up): as the sequence (P03952 whole entry, looked up) above

Structure (SMILES)	IC50 [µM]
Cc1cc(N)nc(C)c1CNC(=O)c1ncn(Cc2cccc(-n3cccn3)c2)n1 [Example 67, 1-(3-(1H-pyrazol-1-yl)benzyl)-N-((6-amino-2,4-dimethylpyridin-3-yl)methyl)-1H-1,2,4-triazole-3-carboxamide]	0.06
Cc1cc(N)nc(C)c1CNC(=O)c1ncn(Cc2cccc(N3CCCC3)c2)n1 [Example 68, N-((6-amino-2,4-dimethylpyridin-3-yl)methyl)-1-(3-(pyrrolidin-1-yl)benzyl)-1H-1,2,4-triazole-3-carboxamide]	0.034
Cc1cc(N)nc(C)c1CNC(=O)c1cnn(Cc2ccnc(N3CCOCC3)c2)c1 [Example 69, N-((6-amino-2,4-dimethylpyridin-3-yl)methyl)-1-((2-morpholinopyridin-4-yl)methyl)-1H-pyrazole-4-carboxamide]	1.6
Cc1cc(N)nc(C)c1CNC(=O)c1ccn(Cc2ccccc2)c1 [Example 70, N-((6-amino-2,4-dimethylpyridin-3-yl)methyl)-1-benzyl-1H-pyrrole-3-carboxamide]	4.1
COCCc1cccc(Cn2cc(C(=O)NCc3c(C)cc(N)nc3C)cn2)c1 [Example 71, N-((6-amino-2,4-dimethylpyridin-3-yl)methyl)-1-(3-(2-methoxyethyl)benzyl)-1H-pyrazole-4-carboxamide]	0.19
Cc1cc(N)nc(C)c1CNC(=O)c1cc(C)n(S(=O)(=O)c2ccccc2)c1C [Example 72, N-((6-amino-2,4-dimethylpyridin-3-yl)methyl)-2,5-dimethyl-1-(Phenylsulfonyl)-1H-pyrrole-3-carboxamide]	0.937
COc1cc(Cn2cc(C(=O)NCc3c(C)cc(N)nc3C)cn2)cc(OC)c1 [Example 73, N-((6-amino-2,4-dimethylpyridin-3-yl)methyl)-1-(3,5-dimethoxybenzyl)-1H-pyrazole-4-carboxamide]	0.114
Cc1cn(S(=O)(=O)c2ccccc2)cc1C(=O)NCc1c(C)cc(N)nc1C [Example 74, N-((6-amino-2,4-dimethylpyridin-3-yl)methyl)-4-methyl-1-(phenylsulfonyl)-1H-pyrrole-3-carboxamide]	0.595
Cc1cc(N)nc(C)c1CNC(=O)c1cnn(Cc2ccc3[nH]c(C)c(C)c3c2)c1 [Example 75, N-((6-amino-2,4-dimethylpyridin-3-yl)methyl)-1-((2,3-dimethyl-1H-indol-5-yl)methyl)-1H-pyrazole-4-carboxamide]	0.0031
Cc1cn(Cc2ccccc2)cc1C(=O)NCc1c(C)cc(N)nc1C [Example 76, N-((6-amino-2,4-dimethylpyridin-3-yl)methyl)-1-benzyl-4-methyl-1H-pa role-3-carboxamide]	0.949
Cc1nc(N)cc(OCC(N)=O)c1CNC(=O)c1cnn(Cc2ccccc2)c1 [Example 77, N-((6-amino-4-(2-amino-2-oxoethoxy)-2-methylpyridin-3-yl)methyl)-1-benzyl-1H-pyrazole-4-carboxamide]	0.072
Cc1cc(N)nc(C)c1CNC(=O)c1coc(Oc2ccccc2)n1 [Example 78, N-((6-amino-2,4-dimethylpyridin-3-yl)methyl)-2-phenoxyoxazole-4-carboxamide]	10.1
Cc1cc(N)nc(C)c1CNC(=O)c1cnn(Cc2ccc(OC(F)(F)F)cc2)c1 [Example 80, N-((6-amino-2,4-dimethylpyridin-3-yl)methyl)-1-(4-(trifluoromethoxy)benzyl)-1H-pyrazole-4-carboxamide]	0.117
Cc1cc(N)nc(C)c1CNC(=O)c1cnn(Cc2cccc(C#N)c2)c1 [Example 81, N-((6-amino-2,4-dimethylpyridin-3-yl)methyl)-1-(3-cyanobenzyl)-1H-pyrazole-4-carboxamide]	0.411
Cc1cc(N)nc(C)c1CNC(=O)c1cnn(Cc2ccc(C#N)cc2)c1 [Example 82, N-((6-amino-2,4-dimethylpyridin-3-yl)methyl)-1-(4-cyanobenzyl)-1H-pyrazole-4-carboxamide]	0.678
Cc1cc(N)nc(C)c1CNC(=O)c1cnn(Cc2ccc3ccccc3c2)c1 [Example 83, N-((6-amino-2,4-dimethylpyridin-3-yl)methyl)-1-(naphthalen-2-ylmethyl)-1H-pyrazole-4-carboxamide]	0.018
Cc1cc(N)nc(C)c1CNC(=O)c1cnn(Cc2cccc(F)c2)c1 [Example 84, N-((6-amino-2,4-dimethylpyridin-3-yl)methyl)-1-(3-fluorobenzyl)-1H-pyrazole-4-carboxamide]	0.498
Cc1nc(N)ccc1CNC(=O)c1cnn(Cc2ccccc2)c1 [Example 85, N-((6-amino-2-methylpyridin-3-yl)methyl)-1-benzyl-1H-pyrazole-4-carboxamide]	4.1
Cc1cccc(Cn2cc(C(=O)NCc3c(C)cc(N)nc3C)cn2)n1 [Example 86, N-((6-amino-2,4-dimethylpyridin-3-yl)methyl)-1-((6-methylpyridin-2-yl)methyl)-1H-pyrazole-4-carboxamide]	7.5
Cc1cc(N)nc(C)c1CNC(=O)c1cnn(Cc2ccccc2Cl)c1 [Example 87, N-((6-amino-2,4-dimethylpyridin-3-yl)methyl)-1-(2-chlorobenzyl)-1H-pyrazole-4-carboxamide]	1.3

Structure (SMILES)	IC50 [µM]
Cc1cc(N)nc(C)c1CNC(=O)c1cnn(CC2CCCCC2)c1 [Example 88, N-((6-amino-2,4-dimethylpyridin-3-yl)methyl)-1-(cyclohexylmethyl)-1H-pyrazole-4-carboxamide]	1.8
Cc1cc(N)nc(C)c1CNC(=O)c1cnn(Cc2ccc(COc3ccccc3)cc2)c1 [Example 89, N-((6-amino-2,4-dimethylpyridin-3-yl)methyl)-1-(4-(Phenoxymethyl)benzyl)-1H-pyrazole-4-carboxamide]	0.006
Cc1cc(N)nc(C)c1CNC(=O)c1cnn(Cc2ccc(F)c(F)c2)c1 [Example 90, N-((6-amino-2,4-dimethylpyridin-3-yl)methyl)-1-(3,4-difluorobenzyl)-1H-pyrazole-4-carboxamide]	2
Cc1noc(-c2ccc(Cn3cc(C(=O)NCc4c(C)cc(N)nc4C)cn3)cc2)n1 [Example 91, N-((6-amino-2,4-dimethylpyridin-3-yl)methyl)-1-(4-(3-methyl-1,2,4-oxadiazol-5-yl)benzyl)-1H-pyrazole-4-carboxamide]	0.133
Cc1cc(N)nc(C)c1CNC(=O)c1cnn(Cc2cccc(Cl)c2)c1 [Example 92, N-((6-amino-2,4-dimethylpyridin-3-yl)methyl)-1-(3-chlorobenzyl)-1H-pyrazole-4-carboxamide]	0.867
Cc1cc(N)nc(C)c1CNC(=O)c1cnn(Cc2ccc(F)cc2F)c1 [Example 93, N-((6-amino-2,4-dimethylpyridin-3-yl)methyl)-1-(2,4-difluorobenzyl)-1H-pyrazole-4-carboxamide]	0.674
Cc1cc(N)nc(C)c1CNC(=O)c1cnn(Cc2ccc(OCc3ccccc3)cc2)c1 [Example 94, N-((6-amino-2,4-dimethylpyridin-3-yl)methyl)-1-(4-(benzyloxy)benzyl)-1H-pyrazole-4-carboxamide]	0.0021
Cc1cc(N)nc(C)c1CNC(=O)c1cnn(Cc2cccc3c2OCCCO3)c1 [Example 95, N-((6-amino-2,4-dimethylpyridin-3-yl)methyl)-1-((3,4-dihydro-2H-benzo[b][1,4]dioxepin-6-yl)methyl)-1H-pyrazole-4-carboxamide]	0.485
Cc1cc(N)nc(C)c1CNC(=O)c1cnn(Cc2ccc(Cl)cc2)c1 [Example 96, N-((6-amino-2,4-dimethylpyridin-3-yl)methyl)-1-(4-chlorobenzyl)-1H-pyrazole-4-carboxamide]	0.291
Cc1nc(Cn2cc(C(=O)NCc3c(C)cc(N)nc3C)cn2)cs1 [Example 97, N-((6-amino-2,4-dimethylpyridin-3-yl)methyl)-1-((2-methylthiazol-4-yl)methyl)-1H-pyrazole-4-carboxamide]	1.9
Cc1cc(N)nc(C)c1CNC(=O)c1cnn(Cc2cccnc2)c1 [Example 98, N-((6-amino-2,4-dimethylpyridin-3-yl)methyl)-1-(pyridin-3-ylmethyl)-1H-pyrazole-4-carboxamide]	3.8
Cc1cc(N)nc(C)c1CNC(=O)c1cnn(C(C)c2ccccc2)c1 (stereo not drawn) [Example 100, N-((6-amino-2,4-dimethylpyridin-3-yl)methyl)-1-(1-phenylethyl)-1H-pyrazole-4-carboxamide]	0.642
Cc1cc(N)nc(C)c1CNC(=O)c1cnn(Cc2ccc3c(c2)nnn3C)c1 [Example 101, N-((6-amino-2,4-dimethylpyridin-3-yl)methyl)-1-((1-methyl-1H-benzo[d][1,2,3]triazol-5-yl)methyl)-1H-pyrazole-4-carboxamide]	0.07
Cc1cc(N)nc(C)c1CNC(=O)c1cnn(Cc2cccc(C(N)=O)c2)c1 [Example 102, N-((6-amino-2,4-dimethylpyridin-3-yl)methyl)-1-(3-carbamoylbenzyl)-1H-pyrazole-4-carboxamide]	4
Cc1cc(N)nc(C)c1CNC(=O)c1cnn(Cc2ccc3c(c2)OCO3)c1 [Example 103, N-((6-amino-2,4-dimethylpyridin-3-yl)methyl)-1-(benzo[d][1,3]dioxol-5-ylmethyl)-1H-pyrazole-4-carboxamide]	0.299
Cc1cc(N)nc(C)c1CNC(=O)c1cnn(Cc2nc3ccccc3s2)c1 [Example 105, N-((6-amino-2,4-dimethylpyridin-3-yl)methyl)-1-(benzo[d]thiazol-2-ylmethyl)-1H-pyrazole-4-carboxamide]	0.168
Cc1cc(N)nc(C)c1CNC(=O)c1cnn(Cc2noc3ccccc23)c1 [Example 106, N-((6-amino-2,4-dimethylpyridin-3-yl)methyl)-1-(benzo[d]isoxazol-3-ylmethyl)-1H-pyrazole-4-carboxamide]	0.415
Cc1cc(N)nc(C)c1CNC(=O)c1cn(Cc2ccccc2C#N)c2ccccc12 [Example 107, N-((6-amino-2,4-dimethylpyridin-3-yl)methyl)-1-(2-cyanobenzyl)-1H-indole-3-carboxamide]	1.8
Cc1cc(N)nc(C)c1CNC(=O)c1cn(Cc2ccccc2)c2ccccc12 [Example 108, N-((6-amino-2,4-dimethylpyridin-3-yl)methyl)-1-benzyl-1H-indole-3-carboxamide]	0.798
